Assay: mn = molality of the nth substance listed, in mol/kg
Conditions: for surface tension liquid-gas: Ring tensiometer; for electrical conductivity: 100 kPa, Liquid, Alternating current cell with electrodes

CCCCCCCCCCCC[NH+](CCO)CC(C)O.[Cl-] (stereo unspecified) + O
Conditions | electrical conductivity [S/m] | surface tension liquid-gas [mN/m]
293.15 K, m1 = 1.54e-05 | 0.00031 | –
293.15 K, m1 = 1.543e-05 | – | 59.21
293.15 K, m1 = 3.087e-05 | – | 52.72
293.15 K, m1 = 3.859e-05 | – | 50.31
293.15 K, m1 = 3.95e-05 | 0.00039 | –
293.15 K, m1 = 6.35e-05 | 0.00047 | –
293.15 K, m1 = 7.717e-05 | – | 44.02
293.15 K, m1 = 8.75e-05 | 0.000551 | –
293.15 K, m1 = 0.0001116 | 0.000631 | –
293.15 K, m1 = 0.0001356 | 0.000711 | –
293.15 K, m1 = 0.0001544 | – | 37.72
293.15 K, m1 = 0.0001596 | 0.000791 | –
293.15 K, m1 = 0.0001837 | 0.000872 | –
293.15 K, m1 = 0.0002077 | 0.000952 | –
293.15 K, m1 = 0.0002315 | – | 34.11
293.15 K, m1 = 0.0002317 | 0.00103 | –
293.15 K, m1 = 0.0002558 | 0.00111 | –
293.15 K, m1 = 0.0002798 | 0.00119 | –
293.15 K, m1 = 0.0003038 | 0.00127 | –
293.15 K, m1 = 0.0003087 | – | 31.52
293.15 K, m1 = 0.0003279 | 0.00135 | –
293.15 K, m1 = 0.0003519 | 0.00144 | 30.47
293.15 K, m1 = 0.0003819 | 0.00148 | –
293.15 K, m1 = 0.0004119 | 0.00153 | –
293.15 K, m1 = 0.0004419 | 0.00159 | –
293.15 K, m1 = 0.0004719 | 0.00163 | –
293.15 K, m1 = 0.0005018 | 0.00169 | –
293.15 K, m1 = 0.0005318 | 0.00174 | –
293.15 K, m1 = 0.0005618 | 0.00179 | –
293.15 K, m1 = 0.0005918 | 0.00184 | –
293.15 K, m1 = 0.0006218 | 0.00189 | –
293.15 K, m1 = 0.0006518 | 0.00194 | –
293.15 K, m1 = 0.0006818 | 0.00199 | –
293.15 K, m1 = 0.0007118 | 0.00204 | –
293.15 K, m1 = 0.0007417 | 0.00209 | –
293.15 K, m1 = 0.0007717 | 0.00214 | 30.03
293.15 K, m1 = 0.001543 | – | 29.53
293.15 K, m1 = 0.002315 | – | 29.53
298.15 K, m1 = 1.54e-05 | 0.00041 | –
298.15 K, m1 = 1.543e-05 | – | 54.03
298.15 K, m1 = 3.087e-05 | – | 48.02
298.15 K, m1 = 3.51e-05 | 0.000488 | –
298.15 K, m1 = 3.859e-05 | – | 45.91
298.15 K, m1 = 5.47e-05 | 0.000565 | –
298.15 K, m1 = 7.43e-05 | 0.000643 | –
298.15 K, m1 = 7.717e-05 | – | 40
298.15 K, m1 = 9.39e-05 | 0.000721 | –
298.15 K, m1 = 0.0001136 | 0.000798 | –
298.15 K, m1 = 0.0001332 | 0.000876 | –
298.15 K, m1 = 0.0001528 | 0.000954 | –
298.15 K, m1 = 0.0001544 | – | 34.51
298.15 K, m1 = 0.0001724 | 0.00103 | –
298.15 K, m1 = 0.000192 | 0.00111 | –
298.15 K, m1 = 0.0002117 | 0.00119 | –
298.15 K, m1 = 0.0002313 | 0.00127 | –
298.15 K, m1 = 0.0002315 | – | 31.42
298.15 K, m1 = 0.0002509 | 0.00134 | –
298.15 K, m1 = 0.0002705 | 0.00142 | –
298.15 K, m1 = 0.0002902 | 0.0015 | –
298.15 K, m1 = 0.0002932 | – | 29.91
298.15 K, m1 = 0.0003155 | 0.00156 | –
298.15 K, m1 = 0.0003409 | 0.00161 | –
298.15 K, m1 = 0.0003662 | 0.00167 | –
298.15 K, m1 = 0.0003915 | 0.00173 | –
298.15 K, m1 = 0.0004169 | 0.00179 | –
298.15 K, m1 = 0.0004422 | 0.00185 | –
298.15 K, m1 = 0.0004676 | 0.0019 | –
298.15 K, m1 = 0.0004929 | 0.00196 | –
298.15 K, m1 = 0.0005183 | 0.00202 | –
298.15 K, m1 = 0.0005436 | 0.00208 | –
298.15 K, m1 = 0.000569 | 0.00213 | –
298.15 K, m1 = 0.0005943 | 0.00219 | –
298.15 K, m1 = 0.0006197 | 0.00225 | –
298.15 K, m1 = 0.000645 | 0.00231 | –
298.15 K, m1 = 0.0006703 | 0.00236 | –
298.15 K, m1 = 0.0006957 | 0.00242 | –
298.15 K, m1 = 0.000721 | 0.00248 | –
298.15 K, m1 = 0.0007464 | 0.00254 | –
298.15 K, m1 = 0.0007717 | 0.0026 | 29.14
298.15 K, m1 = 0.001543 | – | 28.62
298.15 K, m1 = 0.002315 | – | 28.22
298.15 K, m1 = 0.003087 | – | 28.01
303.15 K, m1 = 1.08e-05 | – | 52.51
303.15 K, m1 = 1.54e-05 | 0.00051 | –
303.15 K, m1 = 1.543e-05 | – | 49.91
303.15 K, m1 = 3.087e-05 | – | 44.82
303.15 K, m1 = 3.44e-05 | 0.000593 | –
303.15 K, m1 = 3.859e-05 | – | 42.83
303.15 K, m1 = 5.34e-05 | 0.000676 | –
303.15 K, m1 = 7.23e-05 | 0.000759 | –
303.15 K, m1 = 7.717e-05 | – | 38
303.15 K, m1 = 9.13e-05 | 0.000841 | –
303.15 K, m1 = 0.0001102 | 0.000924 | –
303.15 K, m1 = 0.0001292 | 0.00101 | –
303.15 K, m1 = 0.0001482 | 0.00109 | –
303.15 K, m1 = 0.0001544 | – | 32.62
303.15 K, m1 = 0.0001671 | 0.00117 | –
303.15 K, m1 = 0.0001861 | 0.00126 | –
303.15 K, m1 = 0.0002051 | 0.00134 | –
303.15 K, m1 = 0.000224 | 0.00142 | –
303.15 K, m1 = 0.0002315 | – | 29.91
303.15 K, m1 = 0.000243 | 0.0015 | –
303.15 K, m1 = 0.0002619 | 0.00159 | –
303.15 K, m1 = 0.0002797 | – | 28.96
303.15 K, m1 = 0.0002809 | 0.00167 | –
303.15 K, m1 = 0.0003067 | 0.00174 | –
303.15 K, m1 = 0.0003326 | 0.00181 | –
303.15 K, m1 = 0.0003584 | 0.00188 | –
303.15 K, m1 = 0.0003842 | 0.00195 | –
303.15 K, m1 = 0.0004101 | 0.00202 | –
303.15 K, m1 = 0.0004359 | 0.00209 | –
303.15 K, m1 = 0.0004617 | 0.00216 | –
303.15 K, m1 = 0.0004876 | 0.00223 | –
303.15 K, m1 = 0.0005134 | 0.0023 | –
303.15 K, m1 = 0.0005392 | 0.00237 | –
303.15 K, m1 = 0.0005651 | 0.00244 | –
303.15 K, m1 = 0.0005909 | 0.00251 | –
303.15 K, m1 = 0.0006167 | 0.00258 | –
303.15 K, m1 = 0.0006426 | 0.00265 | –
303.15 K, m1 = 0.0006684 | 0.00272 | –
303.15 K, m1 = 0.0006942 | 0.00279 | –
303.15 K, m1 = 0.0007201 | 0.00285 | –
303.15 K, m1 = 0.0007459 | 0.00293 | –
303.15 K, m1 = 0.0007717 | 0.003 | 28.21
303.15 K, m1 = 0.001543 | – | 27.64
303.15 K, m1 = 0.002315 | – | 27.64
303.15 K, m1 = 0.003087 | – | 27.64
308.15 K, m1 = 8.952e-06 | – | 50.44
308.15 K, m1 = 1.54e-05 | 0.00061 | –
308.15 K, m1 = 1.543e-05 | – | 46.51
308.15 K, m1 = 3.087e-05 | – | 41.89
308.15 K, m1 = 3.51e-05 | 0.000702 | –
308.15 K, m1 = 3.859e-05 | – | 40.38
308.15 K, m1 = 5.47e-05 | 0.000794 | –
308.15 K, m1 = 7.43e-05 | 0.000886 | –
308.15 K, m1 = 7.717e-05 | – | 35.57
308.15 K, m1 = 9.39e-05 | 0.000978 | –
308.15 K, m1 = 0.0001136 | 0.00107 | –
308.15 K, m1 = 0.0001332 | 0.00116 | –
308.15 K, m1 = 0.0001528 | 0.00125 | –
308.15 K, m1 = 0.0001544 | – | 31.04
308.15 K, m1 = 0.0001724 | 0.00135 | –
308.15 K, m1 = 0.000192 | 0.00144 | –
308.15 K, m1 = 0.0002117 | 0.00153 | –
308.15 K, m1 = 0.0002313 | 0.00162 | –
308.15 K, m1 = 0.0002509 | 0.00171 | –
308.15 K, m1 = 0.0002624 | – | 27.74
308.15 K, m1 = 0.0002705 | 0.00181 | –
308.15 K, m1 = 0.0002902 | 0.0019 | –
308.15 K, m1 = 0.0003087 | – | 27.74
308.15 K, m1 = 0.0003169 | 0.00198 | –
308.15 K, m1 = 0.0003437 | 0.00207 | –
308.15 K, m1 = 0.0003704 | 0.00215 | –
308.15 K, m1 = 0.0003972 | 0.00224 | –
308.15 K, m1 = 0.0004239 | 0.00232 | –
308.15 K, m1 = 0.0004507 | 0.00241 | –
308.15 K, m1 = 0.0004774 | 0.00249 | –
308.15 K, m1 = 0.0005042 | 0.00258 | –
308.15 K, m1 = 0.0005309 | 0.00266 | –
308.15 K, m1 = 0.0005577 | 0.00275 | –
308.15 K, m1 = 0.0005845 | 0.00283 | –
308.15 K, m1 = 0.0006112 | 0.00291 | –
308.15 K, m1 = 0.000638 | 0.003 | –
308.15 K, m1 = 0.0006647 | 0.00308 | –
308.15 K, m1 = 0.0006915 | 0.00317 | –
308.15 K, m1 = 0.0007182 | 0.00325 | –
308.15 K, m1 = 0.000745 | 0.00334 | –
308.15 K, m1 = 0.0007717 | 0.00342 | 27.55
308.15 K, m1 = 0.001543 | – | 27.08
308.15 K, m1 = 0.002315 | – | 26.79
308.15 K, m1 = 0.003087 | – | 26.79
